From US11701355B2, “Levosimendan for treating pulmonary hypertension with heart failure with preserved ejection fraction (PH-HFpEF)” (Tenax Therapeutics, Inc., priority 2019, dated 2023)

Assay: Pharmacokinetic study, subcutaneous vs IV administration, plasma levosimendan and OR-1896 by HPLC/MS/MS
Details: male, Sprague Dawley, rat, in vivo
Description: A pharmacokinetic study was conducted in male Sprague Dawley rats to compare subcutaneous administration of a composition of the present invention with IV administration of a formulation of levosimendan. The study evaluated levosimendan blood levels and pain at the injection site.
This study involved comparing the results of administering two subcutaneous compositions according to embodiments of the present invention to a previous pharmacokinetic study in which male rats were dosed by tail vein levosimendan as an IV bolus injection at 0.5 mg/kg using a 0.25 mg/ml solution. Thus, this study comprised three study arms: • a. IV administration of a composition comprising levosimendan (0.25 mg/ml) and phosphate buffer (10 mmolar), prepared in sterile water for injection and adjusted to a pH of 7.0 to 7.9 using 1 N NaOH or 10 N NaOH; this composition was administered at a dose of 0.5 mg/kg. • b. Subcutaneous administration of a composition comprising levosimendan (1.0 mg/ml), Captisol® (100 mg/ml), and phosphate buffer (10 mmolar), prepared in sterile water for injection and adjusted to a pH of 7.0 to 7.9 using 1 N NaOH or 10 N NaOH; this composition was administered at a dose of 0.5 mg/kg. • c. […]
Plasma samples were analyzed for levosimendan and OR-1896 (the primary metabolite) by HPLC/MS/MS. […]

## C[C@@H]1CC(=O)NN=C1c1ccc(NN=C(C#N)C#N)cc1 [levosimendan, Levosimendan]
  start of the β phase (loss from blood mainly due to metabolism): about 2 hours
